Experimental data published in patent publication US20200236940A1, “2-(HET)ARYL-SUBSTITUTED FUSED HETEROCYCLE DERIVATIVES AS PESTICIDES” (Bayer Aktiengesellschaft, priority 2017, published 2020).

Experiments:
Type in all cases: in vivo
Myzus persicae [1] = assay: Myzus persicae spray test (MYZUPE), Chinese cabbage leaf discs; settings: foliar, 120 h
Description: Myzus persicae—Spray Test [table] To produce a suitable active ingredient formulation, 1 part by weight of active ingredient is dissolved with the specified parts by weight of solvent and made up to the desired concentration with water containing an emulsifier concentration of 1000 ppm. To produce further test concentrations, the formulation is diluted with emulsifier-containing water. Discs of Chinese cabbage leaves (Brassica pekinensis) infested by all stages of the green peach aphid (Myzus persicae) are sprayed with an active ingredient formulation of the desired concentration. After 5 days, the efficacy in % is determined. 100% means that all the aphids have been killed; 0% means that no aphids have been killed. Myzus persicae—Spray Test (MYZUPE) [table] To produce a suitable active ingredient formulation, 1 part by weight of active ingredient is dissolved with the specified parts by weight of solvent and made up to the desired concentration with water containing an emulsifier concentration of 1000 ppm. To produce further test concentrations, the formulation is diluted with emulsifier-containing water. Discs of Chinese cabbage leaves (Brassica pekinensis) infested by all stages of the green peach aphid (Myzus persicae) are sprayed with an active ingredient formulation of the desired concentration. After the desired period of time, the efficacy in % is determined. 100% means that all the aphids have been killed; 0% means that no aphids have been killed.

Spodoptera frugiperda [2] = assay: Spodoptera frugiperda drench test (SPODFR D); settings: soil, 336 h, 14 dat, read-out: % efficacy
Description: Spodoptera frugiperda—Drench Test (SPODFR D) [table] To produce a suitable active ingredient formulation, 1 part by weight of active ingredient is mixed with the specified amounts of solvent and emulsifier, and the concentrate is diluted with water to the desired concentration, it being necessary to take into account the volume of soil which is drenched. It should be ensured that a concentration of 40 ppm of emulsifier in the soil is not exceeded. To produce further test concentrations, water is used for dilution. Maize plants (Zea mays) in pots of soil are watered with an active ingredient formulation of the desired concentration and infected with caterpillars of the armyworm (Spodoptera frugiperda). After the desired time, the kill in % is determined. 100% means that all caterpillars have been killed; 0% means that none of the caterpillars have been killed.

Nilaparvata lugens = Nilaparvata lugens spray test (NILALU); settings: 96 h, 4 dat, read-out: % efficacy
Description: Nilaparvata lugens—Spray Test (NILALU)
(§1) To produce a suitable active ingredient formulation, 1 part by weight of active ingredient is dissolved with the specified parts by weight of solvent and made up to the desired concentration with water containing an emulsifier concentration of 1000 ppm. To produce further test concentrations, the formulation is diluted with emulsifier-containing water. If the addition of ammonium salts or/and penetrants is required, these are each added in a concentration of 1000 ppm to the formulation solution.
Rice plants (Oryza sativa) are sprayed with an active ingredient formulation of the desired concentration and then populated with larvae of the brown planthopper (Nilaparvata lugens).
[…], the efficacy in % is determined. 100% means that all of the planthoppers have been killed; 0% means that none of the planthoppers have been killed.

Nezara viridula = Nezara viridula spray test; settings: 96 h, NEZAVI, 500 g of ai/ha, 4 dat, read-out: % efficacy
Description: Nezara viridula—Spray Test [table] To produce a suitable active ingredient formulation, 1 part by weight of active ingredient is dissolved with the specified parts by weight of solvent and made up to the desired concentration with water containing an emulsifier concentration of 1000 ppm. To produce further test concentrations, the formulation is diluted with emulsifier-containing water. If the addition of ammonium salts or/and penetrants is required, these are each added in a concentration of 1000 ppm to the formulation solution. Barley plants (Hordeum vulgare) infected with larvae of the Southern green shield bug (Nezara viridula) are sprayed with an active ingredient formulation of the desired concentration. After the desired period of time, the efficacy in % is determined. 100% means that all of the shield bugs have been killed; 0% means that none of the shield bugs have been killed.

Phaedon cochleariae [3] = assay: Phaedon cochleariae spray test (PHAECO), cabbage leaves; settings: 168 h, 7 dat, read-out: % efficacy
Description: Phaedon cochleariae—Spray Test (PHAECO)
Solvent: 14 parts by weight of dimethylformamide
Emulsifier: alkylaryl polyglycol ether
as §1
Cabbage leaves (Brassica oleracea) are sprayed with an active ingredient formulation of the desired concentration and populated with larvae of the mustard beetle (Phaedon cochleariae).
After the desired time, the kill in % is determined. 100% means that all the beetle larvae have been killed; 0% means that no beetle larvae have been killed.

Spodoptera frugiperda [4] = assay: Spodoptera frugiperda spray test (SPODFR S), cotton leaves; settings: 168 h, 7 dat, read-out: % efficacy
Description: Spodoptera frugiperda—Spray Test (SPODFR S) Solvent: 14 parts by weight of dimethylformamide Emulsifier: alkylaryl polyglycol ether To produce a suitable active ingredient formulation, 1 part by weight of active ingredient is dissolved with the specified parts by weight of solvent and made up to the desired concentration with water containing an emulsifier concentration of 1000 ppm. To produce further test concentrations, the formulation is diluted with emulsifier-containing water. If the addition of ammonium salts or/and penetrants is required, these are each added in a concentration of 1000 ppm to the formulation solution. Cotton leaves (Gossypium hirsutum) are sprayed with an active ingredient formulation of the desired concentration and populated with caterpillars of the armyworm (Spodoptera frugiperda). After the desired time, the kill in % is determined. 100% means that all caterpillars have been killed; 0% means that none of the caterpillars have been killed.

Boophilus microplus = Boophilus microplus injection test; settings: application rate 20 μg/animal, after 7 days, laying of fertile eggs
Description: Boophilus microplus—Injection Test Solvent: dimethyl sulfoxide To produce a suitable active ingredient formulation, 10 mg of active ingredient are mixed with 0.5 ml of solvent and the concentrate is diluted to the desired concentration with solvent. 1 μl of the active ingredient solution is injected into the abdomen of 5 engorged adult female cattle ticks (Boophilus microplus). The animals are transferred into dishes and kept in a climate-controlled room. Efficacy is assessed after 7 days by laying of fertile eggs. Eggs which are not visibly fertile are stored in a climate-controlled cabinet until the larvae hatch after about 42 days. An efficacy of 100% means that none of the ticks has laid any fertile eggs; 0% means that all the eggs are fertile.

Ctenocephalides felis [5] = assay: Ctenocephalides felis oral test; settings: application rate 100 ppm, after 2 days
Description: Ctenocephalides felis—Oral Test Solvent: dimethyl sulfoxide To produce a suitable active ingredient formulation, 10 mg of active ingredient are mixed with 0.5 ml of dimethyl sulfoxide. Dilution with citrated cattle blood gives the desired concentration. About 20 unfed adult cat fleas (Ctenocephalides felis) are placed into a chamber which is closed at the top and bottom with gauze. A metal cylinder whose bottom end is closed with parafilm is placed onto the chamber. The cylinder contains the blood/active ingredient formulation, which can be imbibed by the fleas through the parafilm membrane. After 2 days, the kill in % is determined. 100% means that all of the fleas have been killed; 0% means that none of the fleas have been killed.

Musca domestica = Musca domestica test; settings: application rate 100 ppm, after 2 days, adult houseflies
Description: Musca domestica Test Solvent: dimethyl sulfoxide To produce a suitable active ingredient formulation, 10 mg of active ingredient are mixed with 0.5 ml of dimethyl sulfoxide, and the concentrate is diluted with water to the desired concentration. Vessels containing a sponge treated with sugar solution and the desired concentration of active ingredient formulation are populated with 10 adult houseflies (Musca domestica). After 2 days, the kill in % is determined. 100% means that all the flies were killed; 0% means that no flies were killed.

Myzus persicae [6] = assay: Myzus persicae oral test; settings: 120 h, application rate 4 ppm, after 5 days, read-out: efficacy
Description: Myzus persicae—Oral Test Solvent: 100 parts by weight of acetone To produce a suitable active ingredient formulation, 1 part by weight of active ingredient is dissolved with the stated parts by weight of solvent and made up to the desired concentration with water. 50 μl of the active ingredient formulation are transferred into microtitre plates and made up to a final volume of 200 μl with 150 μl of IPL41 insect medium (33%+15% sugar). Subsequently, the plates are sealed with parafilm, which a mixed population of green peach aphids (Myzus persicae) within a second microtitre plate is able to puncture and imbibe the solution. After 5 days, the efficacy in % is determined. 100% means that all the aphids have been killed; 0% means that no aphids have been killed.

Phaedon cochleariae [7] = assay: Phaedon cochleariae spray test, Chinese cabbage leaf discs; settings: foliar, 168 h, application rate 100 g/ha, after 7 days, larvae, read-out: efficacy
Description: Phaedon cochleariae—Spray Test
as §1, with “water.” for “water. If the addition of ammonium salts or/and penetrants is required, these are each added in a concentration of 1000 ppm to the formulation solution.”
After 7 days, the efficacy in % is determined. 100% means that all the beetle larvae have been killed; 0% means that no beetle larvae have been killed.

Lucilia cuprina = Lucilia cuprina test; settings: after 2 days, L1 larvae
Description: Lucilia cuprina Test Solvent: dimethyl sulfoxide To produce a suitable active ingredient formulation, 10 mg of active ingredient are mixed with 0.5 ml of dimethyl sulfoxide, and the concentrate is diluted with water to the desired concentration. About 20 L1 larvae of the Australian sheep blowfly (Lucilia cuprina) are transferred into a test vessel containing minced horsemeat and the active ingredient formulation of the desired concentration. After 2 days, the kill in % is determined. 100% means that all the larvae have been killed; 0% means that no larvae have been killed.

Myzus persicae [8] = assay: Myzus persicae spray test, bell pepper plants; settings: application rate 20 ppm, after 6 days
Description: Myzus persicae—Spray Test Solvent: 14 parts by weight of dimethylformamide Emulsifier: alkylaryl polyglycol ether To produce a suitable active ingredient formulation, 1 part by weight of active ingredient is dissolved with the specified parts by weight of solvent and made up to the desired concentration with water containing an emulsifier concentration of 1000 ppm. To produce further test concentrations, the formulation is diluted with emulsifier-containing water. If the addition of ammonium salts or/and penetrants is required, these are each added in a concentration of 1000 ppm to the formulation solution. Bell pepper plants (Capsicum annuum) severely infested with the green peach aphid (Myzus persicae) are treated by spraying with the active ingredient formulation in the desired concentration. After 6 days, the kill in % is determined. 100% means that all of the aphids have been killed; 0% means that none of the aphids have been killed.

Ctenocephalides felis [9] = assay: Ctenocephalides felis in vitro contact test with adult cat fleas; settings: application rate 5 μg/cm^2 (=500 g/ha), after 48 h
Description: Ctenocephalides felis—In Vitro Contact Tests with Adult Cat Fleas For the coating of the test tubes, 9 mg of active ingredient are first dissolved in 1 ml of acetone p.a. and then diluted to the desired concentration with acetone p.a. 250 μl of the solution are distributed homogeneously on the inner walls and the base of a 25 ml glass tube by turning and rocking on an orbital shaker (rocking rotation at 30 rpm for 2 h). With 900 ppm of active ingredient solution and internal surface area 44.7 cm^2, given homogeneous distribution, an area-based dose of 5 μg/cm^2 is achieved. After the solvent has evaporated off, the tubes are populated with 5-10 adult cat fleas (Ctenocephalides felis), sealed with a perforated plastic lid and incubated in a horizontal position at room temperature and ambient humidity. After 48 h, efficacy is determined. To this end, the tubes are stood upright and the fleas are knocked to the base of the tube. Fleas which remain motionless at the base or move in an uncoordinated manner are considered to be dead or moribund. […] 100% efficacy means that all the fleas were dead or moribund. 0% efficacy means that no fleas were harmed.

Compound	Emax at 20 g/ha (Myzus persicae [1]; MYZUPE, 20 g of ai/ha, 5 dat, read-out: % efficacy)	Emax at 100 g/ha (Myzus persicae [1]; MYZUPE, 100 g of ai/ha, 5 dat, read-out: % efficacy)	Emax at 20 ppm (Spodoptera frugiperda [2])	Emax at 100 g/ha (Nilaparvata lugens; 100 g of ai/ha)	Emax at 500 g/ha (Nilaparvata lugens; 500 g of ai/ha)	Emax at 500 g/ha (Nezara viridula)	Emax at 0.8 ppm (Phaedon cochleariae [3])	Emax at 4 ppm (Spodoptera frugiperda [4])	efficacy (Boophilus microplus)	pest or weed control at 20 g/ha (Myzus persicae [1]; application rate 20 g/ha, after 5 days, read-out: efficacy)	efficacy (kill) (Ctenocephalides felis [5])	efficacy (kill) (Musca domestica)	pest or weed control at 4 ppm (Myzus persicae [6])	pest or weed control at 100 g/ha (Phaedon cochleariae [7])	efficacy (kill) (Lucilia cuprina; application rate 100 ppm)	Emax at 4 g/ha (Myzus persicae [1]; MYZUPE, 4 g of ai/ha, 5 dat, read-out: % efficacy)	efficacy (kill) (Myzus persicae [8])	efficacy (Ctenocephalides felis [9])	efficacy (kill) (Lucilia cuprina; application rate 20 ppm)
CCS(=O)(=O)c1ccc(-n2ncn(-c3ccc(Cl)cc3)c2=O)nc1-c1nc2cc(C(F)(F)F)ncc2n1C [Prior art WO 2017/055185 (Ex. I-19), reference compound]	0%	0%	0%	0%	0%	0%	70%	35%											
CCS(=O)(=O)c1ccc(-n2cncn2)nc1-c1nc2cc(C(F)(F)F)nc(C)c2n1C [Example I-003]									100%	90%	100%	100%	100%	83%	100%				
CCS(=O)(=O)c1ccc(-n2ccnn2)nc1-c1nc2cc(C(F)(F)F)nc(C)c2n1C [Example I-013]											100%	100%	100%	83%	100%	70%	100%	100%	80%
